# Data as given in patent publication EP0180045A2, “Benzanthrin compounds” (ABBOTT LABORATORIES, priority 1984, dated 1986).
# Legend:
# [1] = system: Streptococcus pyogenes 930; experiment: MIC, agar dilution method; format: cell-based; details: Brain Heart Infusion agar, 10^5 CFU inoculum
# Protocol: (§1) The antibacterial activity of the compounds of the invention against a variety of microorganisms is illustrated in Table 3. Minimum inhibitory concentrations were determined by the agar dilution method using brain heart infusion agar with 10 ^5 CFU (colony forming units) as the inoculum.
# [2] = system: Staphylococcus aureus CMX 686b; experiment: MIC, agar dilution method; format: cell-based; details: Brain Heart Infusion agar, 10^5 CFU inoculum
# Protocol: as §1
# Escherichia coli SS = experiment: MIC, agar dilution method; format: cell-based; details: Brain Heart Infusion agar, 10^5 CFU inoculum
# Protocol: as §1
# [3] = system: Streptococcus pyogenes EES61; experiment: MIC, agar dilution method; format: cell-based; details: Brain Heart Infusion agar, 10^5 CFU inoculum
# Protocol: as §1
# [4] = system: Staphylococcus aureus A5177; experiment: MIC, agar dilution method; format: cell-based; details: Brain Heart Infusion agar, 10^5 CFU inoculum
# Protocol: as §1
# Pseudomonas cepacia 2961 = experiment: MIC, agar dilution method; format: cell-based; details: Brain Heart Infusion agar, 10^5 CFU inoculum
# Protocol: as §1
# [5] = system: Enterobacter aerogenes ATCC 13048; experiment: MIC, agar dilution method; format: cell-based; details: Brain Heart Infusion agar, 10^5 CFU inoculum
# Protocol: as §1
# [6] = system: Staphylococcus aureus ATCC 6538P; experiment: MIC, agar dilution method; format: cell-based; details: Brain Heart Infusion agar, 10^5 CFU inoculum
# Protocol: as §1
# Escherichia coli Juhl = experiment: MIC, agar dilution method; format: cell-based; details: Brain Heart Infusion agar, 10^5 CFU inoculum
# Protocol: as §1
# Staphylococcus aureus 45 = experiment: MIC, agar dilution method; format: cell-based; details: Brain Heart Infusion agar, 10^5 CFU inoculum
# Protocol: as §1
# [7] = system: Staphylococcus aureus 45 RAR2; experiment: MIC, agar dilution method; format: cell-based; details: Brain Heart Infusion agar, 10^5 CFU inoculum
# Protocol: as §1
# [8] = system: Streptococcus bovis A5169; experiment: MIC, agar dilution method; format: cell-based; details: Brain Heart Infusion agar, 10^5 CFU inoculum
# Protocol: as §1
# [9] = system: Klebsiella pneumoniae ATCC 8045; experiment: MIC, agar dilution method; format: cell-based; details: Brain Heart Infusion agar, 10^5 CFU inoculum
# Protocol: as §1
# [10] = system: Staphylococcus epidermidis 3519; experiment: MIC, agar dilution method; format: cell-based; details: Brain Heart Infusion agar, 10^5 CFU inoculum
# Protocol: as §1
# [11] = system: Lactobacillus casei ATCC 7469; experiment: MIC, agar dilution method; format: cell-based; details: Brain Heart Infusion agar, 10^5 CFU inoculum
# Protocol: as §1
# [12] = system: Streptococcus faecium ATCC 8043; experiment: MIC, agar dilution method; format: cell-based; details: Brain Heart Infusion agar, 10^5 CFU inoculum
# Protocol: as §1
# [13] = system: Streptococcus agalactiae CMX 508; experiment: MIC, agar dilution method; format: cell-based; details: Brain Heart Infusion agar, 10^5 CFU inoculum
# Protocol: as §1
# [14] = system: Pseudomonas aeruginosa 5007; experiment: MIC, agar dilution method; format: cell-based; details: Brain Heart Infusion agar, 10^5 CFU inoculum
# Protocol: as §1
# [15] = system: Staphylococcus epidermidis 3519 RAR1; experiment: MIC, agar dilution method; format: cell-based; details: Brain Heart Infusion agar, 10^5 CFU inoculum
# Protocol: as §1
# Escherichia coli DC-2 = experiment: MIC, agar dilution method; format: cell-based; details: Brain Heart Infusion agar, 10^5 CFU inoculum
# Protocol: as §1
# KB cells = experiment: KB antitumor test (cytotoxicity); format: cell-based, human; details: Tumor Cell 9KB; dose which inhibits growth to 50% of control growth by 3 days after drug addition
# Protocol: The cytotoxic activity of the compounds of the invention can be tested by a KB antitumor test. KB cells are derived from human epidermoid carcinoma of the mouth and are cultivated on Eagel's basal medium plus 10% serum. Stock cells are fed 24 hours before testing. Test drug is added on day 0 or day 1. Results are expressed as the dose which inhibits growth to 50% of control growth by 3 days after drug addition.
# When the K8 antitumor test was conducted on benzanthrins A and B, the following test data resulted: […]
# Acinetobacter CMX 669 = experiment: MIC, agar dilution method; format: cell-based; details: Brain Heart Infusion agar, 10^5 CFU inoculum
# Protocol: as §1
# Sarcina lutea 9341 = experiment: MIC, agar dilution method; format: cell-based; details: Brain Heart Infusion agar, 10^5 CFU inoculum
# Protocol: as §1
Compound,MIC [1] [µg/mL],MIC [2] [µg/mL],MIC (Escherichia coli SS) [µg/mL],MIC [3] [µg/mL],MIC [4] [µg/mL],MIC (Pseudomonas cepacia 2961) [µg/mL],MIC [5] [µg/mL],MIC [6] [µg/mL],MIC (Escherichia coli Juhl) [µg/mL],MIC (Staphylococcus aureus 45) [µg/mL],MIC [7] [µg/mL],MIC [8] [µg/mL],MIC [9] [µg/mL],MIC [10] [µg/mL],MIC [11] [µg/mL],MIC [12] [µg/mL],MIC [13] [µg/mL],MIC [14] [µg/mL],MIC [15] [µg/mL],MIC (Escherichia coli DC-2) [µg/mL],also measured
Cc1cc2cc(O)c3c(c2c(O[C@@H]2C[C@H](N(C)C)[C@H](O)[C@@H](C)O2)c1[C@@H]1C[C@H](N(C)C)[C@@H](O)[C@H](C)O1)C(=O)c1cccc(O)c1C3=O [Benzanthrin B],0.2,1.56,6.2,0.39,1.56,100,100,3.1,100,1.56,3.1,0.2,100,3.1,0.78,1.56,0.39,100,3.1,100,ED50 (KB cells): 200 to 300 µg/mL
Cc1cc2cc(O)c3c(c2c(O[C@@H]2C[C@H](N(C)C)[C@@H](O)[C@@H](C)O2)c1[C@@H]1C[C@H](N(C)C)[C@@H](O)[C@H](C)O1)C(=O)c1cccc(O)c1C3=O [Benzanthrin A],0.2,3.1,3.1,1.56,3.1,100,100,3.1,100,3.1,3.1,0.39,100,3.1,0.78,1.56,0.78,100,3.1,100,MIC (Acinetobacter CMX 669): 100 µg/mL; MIC (Sarcina lutea 9341): 1.56 µg/mL; ED50 (KB cells): 100 to 300 µg/mL
